In PubChem BioAssay (NCI):
Where “and” joins values, the source holds several entries; their conditions need not be identical. Identical values can stand only once.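 Growth conditions: 96-well plates. Treatment: test compound, 48 hours, 5 concentrations. Analysis: linear interpolation between bracketing concentrations; unreached endpoints set to highest concentration. The concentration for 50% growth inhibition is given as GI50. TGI is the concentration that stops growth completely.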

What was measured:
Assay in all cases: NCI tumour cell line growth inhibition, 48 h
[1] = tested on: MALME-3M melanoma
[2] = tested on: RPMI-8226 leukemia
[3] = tested on: OVCAR-8 ovarian
[4] = tested on: SF-268 CNS
[5] = tested on: SNB-75 CNS
[6] = tested on: SW-620 colon
[7] = tested on: DU-145 prostate
[8] = tested on: HT29 colon
[9] = tested on: NCI-H522 lung
[10] = tested on: ACHN renal

Row | Compound | GI50 [1] [µM] | TGI [1] | GI50 [2] | TGI [2] | GI50 [3] | TGI [3] | GI50 [4] | TGI [4] | GI50 [5] | TGI [5] | GI50 [6] | TGI [6] [µM] | GI50 [7] | TGI [7] [µM] | GI50 [8] | TGI [8] [µM] | GI50 [9] | TGI [9] [µM] | GI50 [10] | TGI [10]
1 | COc1cccc(/C=C/c2nc3c(cnn3-c3ccccc3)c(=O)[nH]2)c1 | > 100 | > 100 µM | > 100 µM | > 100 µM | > 54.7 µM | > 100 µM | > 55.6 µM | > 100 µM | > 25 µM | > 89.3 µM | > 31.4 µM | > 100 | > 100 µM | > 100 | > 59 µM | > 100 | > 100 µM | > 100 | 28.1 µM | > 100 µM
2 | c1ccc(CN2CCc3[nH]c4ccccc4c3C2)cc1 |  | 35 µM |  | 69.3 µM |  | > 77.4 µM |  | > 86.8 µM |  | > 100 µM |  | 50 |  | 78.3 |  | 36.4 |  | 42.4 |  | 99.8 µM
3 | C=C1C(=O)OC2C1C(OC(=O)/C(C)=C/C)CC(O)(CCl)C1C(O)C=C(C)C21O (configuration not stated) |  | 8.9 µM |  | 30.6 µM |  | 37.2 µM |  | > 69.5 µM |  | > 59 µM |  | 15.7 |  | 30.7 |  | 31.5 |  | 3.29 |  | 18.2 µM
4 | Cc1ccc(C(=O)NCCCOc2ccc(N3C(N)=NC(N)=NC3(C)C)cc2Cl)cc1S(=O)(=O)F | > 100 | > 100 µM | 24.7 µM | > 100 µM | 85.8 µM | > 100 µM | 10.7 µM | > 100 µM | 13.4 µM | > 100 µM | 10.2 µM | > 100 | > 100 µM | > 100 | 6.61 µM | > 100 | 61.7 µM | > 100 | > 100 µM | > 100 µM
5 | N#Cc1ccc(-c2c(-c3ncn[nH]3)sc(N3CCOCC3)c2C#N)c(F)c1 | 0.275 | 6 µM | 4.5 µM | 48.6 µM | 1.85 µM | > 100 µM | 0.507 µM | 59.1 µM | 0.0736 µM | 0.771 µM | 2.94 µM | 29.9 | 1.66 µM | > 100 | 0.363 µM | 18.3 | 1.17 µM | 15 | 0.398 µM | 
6 | Nc1ncnc2c1ncn2C1OC(COS(N)(=O)=O)C(O)C1O (configuration not stated) |  |  | 0.00287 µM and 0.0283 µM | 0.265 µM and 0.0661 µM | < 0.001 µM | 0.00394 µM |  |  | 0.00255 µM and 0.0194 µM | 0.0083 µM and 0.0565 µM |  |  | < 0.001 µM |  |  |  |  | 0.0148 |  | 
7 | CCCCCCCCCC[C@@H](O)[C@@H]1CC[C@@H]([C@@H]2CC[C@@H]([C@@H](O)CCCCCCCCCC[C@H](O)CC3=CC(C)OC3=O)O2)O1 (some centres not stated) | 2.13 | 3.86 µM and 7.42 µM | 7.14 µM |  |  | 8.06 µM and > 54.7 µM | 3.29 µM |  | 6.08 µM | 8.58 µM and 18 µM | 4.82 µM | > 100 | 23.5 µM | > 100 | 26.4 µM |  |  | 13.8 | 2.26 µM | 5.75 µM and 20.7 µM
8 | CNCC/C=C1\c2cc3c(cc2-c2c1c1cc(OC)c(OC)cc1c(=O)n2C)OCO3 | 0.419 | 4.59 µM | 0.149 µM |  | 0.248 µM | 6.55 µM | 0.992 µM | 25.1 µM | 3.26 µM | 33.8 µM | < 0.0142 µM | 16.4 | 0.428 µM | 8.84 | 0.21 µM | > 100 | 0.122 µM | 16.2 | 0.167 µM | 2.21 µM
9 | CCOC(=O)C(Cc1c[nH]c2cc(N(CCO)CCO)ccc12)(NC(C)=O)C(=O)OCC | 258 | > 1000 µM | 65.3 µM |  | 697 µM | > 1000 µM | 619 µM | > 1000 µM |  | > 1000 µM | 398 µM | > 1000 | 391 µM | > 1000 | 305 µM | > 1000 | 61.9 µM | > 1000 | 481 µM | > 1000 µM
10 | CC(C)(C)c1cc(C(=O)Nc2ccc(C(=O)NCCN)cc2)cc(C(C)(C)C)c1 | 1.43 | 3.13 µM |  |  | 3.39 µM | 10.9 µM | 2.03 µM | 5.05 µM | 4.02 µM | 24.5 µM | 1.84 µM | 3.65 | 3.46 µM | 12.4 | 2 µM | 5.19 | 2.41 µM | 7.63 | 4.45 µM | 18.7 µM
11 | CN1CCN(c2ccc(OC(F)(F)F)c(Nc3ncc4c(n3)-c3c(c(C(N)=O)nn3CCO)CC4)c2)CC1 |  | 29.8 µM and > 10 µM | 0.774 µM and 0.324 µM | 35 µM and > 10 µM | 0.0506 µM and 0.0624 µM | 61.5 µM and > 4.59 µM | 0.0661 µM and 0.229 µM | 20.3 µM and > 10 µM | 0.0582 µM and 0.145 µM | 11.7 µM and 1.49 µM | 0.0273 µM and 0.0316 µM | > 84.3 | 0.0349 µM and 0.0417 µM | > 100 | 0.0349 µM and 0.0348 µM | > 82.9 | 0.03 µM and 0.0265 µM |  | 0.43 µM and 0.814 µM | 20.2 µM and > 10 µM
12 | C[C@]12CC[C@@H]3c4ccc(O)cc4CC[C@H]3[C@@H]1CC[C@@H]2NS(=O)(=O)c1ccc(Br)cc1 | 1.93 | 4.36 µM | 2.68 µM | 7.37 µM | 3.14 µM | 11.3 µM | 3.43 µM | 13.4 µM | 2.1 µM | 9.15 µM | 3.35 µM | 13.1 | 3.91 µM | 12.7 | 2.31 µM | 4.63 |  |  | 3.17 µM | 11.1 µM
13 | O=C(NCCc1ccccc1)Nc1ccc2cc3ccc(NC(=O)NCCc4ccccc4)cc3nc2c1 | 0.59 | 1.97 µM | 2.24 µM | 6.72 µM | 0.807 µM | 2.7 µM |  |  | 1.36 µM | 3.21 µM | 0.346 µM | 1.31 | 1.24 µM | 2.76 | 1.39 µM | 3.56 | 0.326 µM | 1.5 | 20.9 µM | > 100 µM
14 | COc1ccc(/C(C)=N/NC(=O)CSc2nc3ccccc3c(=O)n2CCc2ccc(S(N)(=O)=O)cc2)cc1 | 1.72 | 3.44 µM | 2.02 µM | 10.6 µM |  |  |  |  | 1.81 µM | 4.26 µM | 2.28 µM | 5.01 | 1.77 µM | 3.55 | 1.95 µM | 3.7 | 2.26 µM | 6.75 | 1.73 µM | 3.27 µM
